# Key:
# BT20 breast cancer cells = details: reactivation of epigenetically silenced ERBB4; cited from earlier work
# [1] = tested on: metastatic triple negative breast cancer (mTNBC); test: Clinical tumor response of metastatic/locally recurrent TNBC patients to prior and molecularly-selected therapy (TNBC personalized genomics trial); type: in vivo, human
# Description: The secondary objective is to conduct a comprehensive evaluation of genetic mutations in TNBC that may accelerate the development of rational and precise therapeutics; and to evaluate patient's best response to molecularly-selected therapy.
# A patient eligible for clinical trial inclusion in this study had to meet all of the following criteria: (1) has a metastatic or locally recurrent triple negative breast cancer and is scheduled for medically indicated surgical biopsy or resection of disease; (2) have measurable or evaluable (nonmeasurable) disease based on results generated by RECIST v 1.1 (Eisenhauera, 2009) presented after surgical biopsy/resection. Following surgical resection, if the tumor sample is found to be inadequate for comprehensive molecular analysis, the patient would be deemed ineligible and would be replaced; (3) has received at least 1 prior chemotherapeutic regimen for their metastatic or locally recurrent TNBC prior to initiating the molecularly-selected therapy. There is no limit on the prior therapy for TNBC. Intervening therapies were strongly recommended to be held off if possible from the time of biopsy to the completion of sequencing so as not to change the cancer under the selective pressure of treatment, so that the sequencing results would be reflective of the current cancer; (4) is >18 years of age; (5) has an expected survival of at least 6 months, as estimated by the treating oncologist; (6) has planned surgical resection (indicated for the medical care of the patient) that will yield a minimum fresh/frozen tumor sample of 1 cm×1 cm×1 cm that will be available for molecular profiling analysis; (6) is agreeable to having a blood sample (10-20mL) drawn and analyzed to compare their normal genetic profile to that of their tumor sample; (7) has signed the most recent Patient Informed Consent Form and a Patient Authorization Form.
# A patient would be excluded from this study if she meets any of the following criteria: (1) has breast cancer other than metastatic or locally recurrent TNBC; and surgical resection of the recurrent TNBC will render the patient as “no evidence of disease” (NED), and thus to be replaced; (2) has a history of heart disease, other conditions that would prevent treatment with a standard chemotherapeutic agent; (3) has evidence of CNS involvement that is progressing or that requires radiation, resection or steroid therapy; (4) has a serious uncontrolled intercurrent medical or psychiatric illness, including serious infection; (5) is pregnant or nursing; (6) is unable to comply with requirements of study.
# Generally, 14 patients with previously treated triple negative breast cancer were included in the clinical study (Table 11). Samples were collected for sequencing with the SOLiD™ system (Applied Biosystems, Carlsbad, Calif.), and the patients were treated according to what is found after CLIA certification of the target.
# The baseline was measured at the beginning of the treatment, after 2 cycles (close to two months), 75% regression in primary lesion were observed (FIG. 11).
# Through the deep molecular profiling study described herein, a series of somatic events within individual tumors were detected that have informed or may have predicted the effectiveness of targeted therapies for some patients. Table 21 provides key information on therapeutically actionable concepts and clinical outcomes in the patient cohort used for this example.
smiles,measurement,setting,value
Nc1ncn([C@H]2C[C@H](O)[C@@H](CO)O2)c(=O)n1 [5-aza-2′-deoxycytidine],apoptosis,BT20 breast cancer cells,increased apoptosis
Cn1c(=O)n(-c2ccc(C(C)(C)C#N)cc2)c2c3cc(-c4cnc5ccccc5c4)ccc3ncc21 [BEX235],Best results,"[1]; Patient # 1, biomarker profile guided treatment (hit only one arm of what suggested MEK/AKT)",Stable Disease
Cn1c(=O)n(-c2ccc(C(C)(C)C#N)cc2)c2c3cc(-c4cnc5ccccc5c4)ccc3ncc21 [BEZ235],reduction in nodes,[1]; Patient 14,21%
same,Best results,"[1]; Patient # 3, biomarker profile guided treatment",Progressive Disease
"C=C1C[C@@H]2CC[C@@]34C[C@H]5O[C@H]6[C@@H](O3)[C@H]3O[C@H](CC[C@@H]3O[C@H]6[C@H]5O4)CC(=O)C[C@@H]3[C@@H](OC)[C@@H](C[C@H](O)CN)O[C@H]3C[C@H]3O[C@@H](CC[C@@H]1O2)C[C@@H](C)C3=C [Eribulin, eribulin]",Best results,"[1]; Patient # 4, biomarker profile guided treatment",Stable Disease
NC(=O)c1ccc(I)c([N+](=O)[O-])c1 [Iniparib],clinical response,[1]; patient mTNBC9 / TNBC-009 (DNA damage and double-strand break repair defects),responsive
